Assay results taken from US20240009263A1, “COMPOUNDS FOR TREATING ENVELOPED VIRUS INFECTIONS” (priority 2020, published 2024).
Read-outs that look alike come from different tables or passages of the source. Non-standard residues stand in square brackets, D forms with d. Residues, ends and D or L forms follow the SMILES beside them. *: point of attachment. Nva = CCC[C@H](N)C(=O)O; Cbz = O=C(OCc1ccccc1)*

Key:
[1] = system: SARS-CoV-2 strain BavPat1; test: SARS-CoV-2 replication inhibition in Caco-2 cells (viral RNA RT-qPCR); conditions: for SI = CC50/EC50: Caco-2 cells; for EC50 / EC90: Severe acute respiratory syndrome coronavirus 2, Caco-2, 48 h
in vitro [2] = conditions: human
[3] = system: SARS-CoV-2 strain BavPat1; conditions: Vero-E6 cells
in vitro [4] = conditions: African green monkey
[5] = system: SARS-CoV-2 strain BavPat1; test: microbe, parasite or virus in culture; conditions: Severe acute respiratory syndrome coronavirus 2, Vero C1008, 48 h
[6] = system: SARS-CoV-2 strain BavPat1; test: microbe, parasite or virus in culture; type: cell-based; conditions: Severe acute respiratory syndrome coronavirus 2; VeroE6-TMPRSS2+ cells, pilot study
[7] = Cytotoxicity in VeroE6 cells (CellTiter Blue); conditions: African green monkey

| Compound | SI = CC50/EC50 [1] | EC50 [1] [nM] | EC90 [1] [nM] | CC50 at 2 days (in vitro [2]) [nM] | SI = CC50/EC50 [3] | balance between virus inhibition and cytotoxicity (selectivity index), in words [3] | CC50 at 2 days (in vitro [4]) [nM] | EC50 [5] [nM] | EC90 [5] [nM] | EC50 [6] [nM] | EC90 [6] [nM] | CC50 at 2 days [7] [nM] |
| --- | --- | --- | --- | --- | --- | --- | --- | --- | --- | --- | --- | --- |
| CC(C)C[C@@H](C=O)NC(=O)[C@H](CC(C)C)NC(=O)[C@H](CC(C)C)NC(=O)OCc1ccccc1 [Compound 1] (Cbz-Leu-Leu-Leu-aldehyde) | 1.89 | 120 | 130 | 230 | 22.8 | advantageous balance | 2790 | 120 | 500 to 1000 | 850 | 3300 | – |
| CC(C)C[C@@H](C=O)NC(=O)[C@H](CC(C)C)NC(=O)[C@H](CC(C)C)NC(=O)Cc1ccc(F)cc1F [Compound 8] | – | – | – | – | >3.84 | advantageous balance | > 2000 | 520 | 1280 | – | – | – |
| CCC[C@@H](C=O)NC(=O)[C@H](CC(C)C)NC(=O)[C@H](CC(C)C)NC(=O)OCc1ccccc1 [Compound 2] (Cbz-Leu-Leu-[Nva]-aldehyde) | 3.50 | 130 | 630 | 450 | >33.3 | best selectivity index | > 2000 | 60 | 160 | – | – | – |
| CC(C)C[C@H](NC(=O)[C@H](Cc1ccccc1)NC(=O)c1cnccn1)B(O)O [Compound 9, reference compound] | – | – | – | – | 0.22 | not favourable | 230 | 1050 | 21500 | – | – | – |
| CC(C)C[C@@H](C=O)NC(=O)[C@H](Cc1ccccc1)NC(=O)[C@H](CC(C)C)NC(=O)OCc1ccccc1 [Compound 6] (Cbz-Leu-Phe-Leu-aldehyde) | – | – | – | – | 12.92 | best selectivity index | 1680 | 310 | 11200 | 140 | > 2000 | – |
| CC(C)C[C@@H](C=O)NC(=O)[C@H](CC(C)C)NC(=O)[C@H](CC(C)C)NC(=O)c1cnccn1 [Compound 7] | – | – | – | – | >2.94 | advantageous balance | – | 680 | 1930 | – | – | > 2000 |
| CC(C)C[C@H](NC(=O)OCc1ccccc1)C(=O)N[C@@H](CC(C)C)C(=O)N[C@H](C=O)Cc1ccccc1 [Compound 5] (Cbz-Leu-Leu-Phe-aldehyde) | 5.13 | 90 | 470 | 480 | >33.3 | best selectivity index | > 2000 | 60 | 1930 | 1780 | 2300 | – |
| CC(C)C[C@@H](C=O)NC(=O)[C@H](CC(C)C)NC(=O)[C@H](Cc1ccccc1)NC(=O)OCc1ccccc1 [Compound 4] (Cbz-Phe-Leu-Leu-aldehyde) | – | – | – | – | 49.69 | best selectivity index | 6460 | 130 | 600 | > 2000 | > 2000 | – |
| CCC(CC)COC(=O)[C@H](C)N[P@](=O)(OC[C@H]1O[C@@](C#N)(c2ccc3c(N)ncnn23)[C@H](O)[C@@H]1O)Oc1ccccc1 [Rem, Remdesivir, reference compound] | – | – | – | – | – | – | – | 2180 | 2450 | – | 1660 | – |
| CC(=O)N[C@@H](CC(C)C)C(=O)N[C@@H](CC(C)C)C(=O)N[C@H](C=O)CC(C)C [Compound 3] (Ac-Leu-Leu-Leu-aldehyde) | – | – | – | – | >45.2 | best selectivity index | 13600 | < 300 | 1570 | – | – | – |
